Experimental data published in US20050182119A1, “Substituted pyrazoline derivatives” (priority 2004, published 2005).

Columns and labels:
[1] = system: HT29 human colon tumor cell line; test: XTT cell viability (antitumoral activity), HT29; assay type: cell-based; conditions: HT-29, incubation time (4 h or 60 h) not stated, read-out: CI50 (μM) colon HT29
Protocol: (§1) The antitumor activity of inventive compounds was evaluated measuring cell metabolic capacity (viability), using the XTT kit and following the recommendations of the manufacturer (Roche Diagnostics). The assays were carried out a minimum of five times, with controls containing unexposed cells, cells with vehicle, or media plus compound. Cells were seeded into 96-well plates in 100 μl of media and incubated for 24 h. Afterwards, the inventive compounds were added at different combination of concentrations (from 1 μM to 80 μM) for 4 h (short time XTT) or 60 h (long time XTT). At the end of the incubation period, 50 μl of a mixture containing XTT and electron coupling reagent to each well were added. After 4 h of incubation at 37° C. the absorbance at 490 nm was noted. The growth inhibitory activity of each compound, was obtained subtracting the absorbance of the blanks and expressed as percentage of cell growth inhibition, as compared with untreated controls. The inhibitory concentration 50 (IC50) was determined from the dose-response curves of compound concentration versus percentage of cell viability with the Hill sigmoidal equation (three parameters), using Sigmaplot 5.0 software.

COX-2 = target: T1, COX-2 (Homo sapiens, UniProt P35354); test: Inhibition of enzyme COX-2; assay type: biochemical
T1 sequence (P35354 18-604): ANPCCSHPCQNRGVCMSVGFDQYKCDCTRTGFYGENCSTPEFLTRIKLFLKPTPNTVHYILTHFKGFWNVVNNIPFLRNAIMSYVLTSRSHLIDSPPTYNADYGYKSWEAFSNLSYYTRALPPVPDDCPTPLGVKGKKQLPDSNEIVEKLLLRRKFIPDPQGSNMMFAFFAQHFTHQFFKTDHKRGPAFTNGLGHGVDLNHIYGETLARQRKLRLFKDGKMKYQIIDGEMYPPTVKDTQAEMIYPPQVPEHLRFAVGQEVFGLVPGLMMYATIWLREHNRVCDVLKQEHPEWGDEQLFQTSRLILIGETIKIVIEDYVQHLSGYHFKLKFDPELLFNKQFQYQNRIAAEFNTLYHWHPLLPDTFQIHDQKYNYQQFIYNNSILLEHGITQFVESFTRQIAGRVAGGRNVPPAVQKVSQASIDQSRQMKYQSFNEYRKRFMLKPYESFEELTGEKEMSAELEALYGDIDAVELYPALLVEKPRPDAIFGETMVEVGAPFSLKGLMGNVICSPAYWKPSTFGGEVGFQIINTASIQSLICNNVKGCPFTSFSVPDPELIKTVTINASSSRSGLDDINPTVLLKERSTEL

[2] = system: PC3 human prostata tumor cell line; test: XTT cell viability (antitumoral activity), PC3; assay type: cell-based; conditions: incubation time (4 h or 60 h) not stated, read-out: CI50 (μM) prostata PC3
Protocol: as §1

[3] = system: NC59 human colon tumor cell line; test: XTT cell viability (antitumoral activity), NC59; assay type: cell-based; conditions: incubation time (4 h or 60 h) not stated, read-out: CI50 (μM) colon NC59
Protocol: as §1

COX-1 = COX-1 (Homo sapiens, UniProt P23219); test: Inhibition of enzyme COX-1; assay type: biochemical
[4] = system: HCA7 human colon tumor cell line; test: XTT cell viability (antitumoral activity), HCA7; assay type: cell-based; conditions: HCA-7, incubation time (4 h or 60 h) not stated, read-out: CI50 (μM) colon HCA7
Protocol: as §1

COX-1, sequence (P23219 24-599): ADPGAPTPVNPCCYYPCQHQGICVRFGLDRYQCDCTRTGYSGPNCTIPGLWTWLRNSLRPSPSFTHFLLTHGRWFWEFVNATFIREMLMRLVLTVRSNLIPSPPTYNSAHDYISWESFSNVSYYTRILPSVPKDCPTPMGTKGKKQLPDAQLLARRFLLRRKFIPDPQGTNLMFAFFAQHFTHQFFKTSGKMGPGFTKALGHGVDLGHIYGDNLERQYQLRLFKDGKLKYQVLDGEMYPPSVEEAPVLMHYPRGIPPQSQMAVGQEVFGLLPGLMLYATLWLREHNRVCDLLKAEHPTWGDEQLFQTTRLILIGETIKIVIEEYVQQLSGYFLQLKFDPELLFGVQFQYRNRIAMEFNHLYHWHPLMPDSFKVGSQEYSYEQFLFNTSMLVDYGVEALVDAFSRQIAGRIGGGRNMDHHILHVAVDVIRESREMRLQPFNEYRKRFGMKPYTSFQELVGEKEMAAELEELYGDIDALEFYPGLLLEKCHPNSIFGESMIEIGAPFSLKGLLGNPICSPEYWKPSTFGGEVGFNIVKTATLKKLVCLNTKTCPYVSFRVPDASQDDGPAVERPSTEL

Row | IC50 [1] | inhibiting activity of enzyme COX-2 (COX-2) | IC50 [2] | IC50 [3] | melting point | inhibiting activity of enzyme COX-1 (COX-1) | IC50 [4] | SMILES
1 | 14.9 µM | do not display any inhibiting activity | 12.3 µM | 16.3 µM | 200 to 202 °C | do not display any inhibiting activity | 10.5 µM | Cc1ccc(C)c(C2CC(C(F)(F)F)=NN2c2ccc(S(N)(=O)=O)cc2)c1 (stereo not drawn) [Example 1, 4-[5-(2,5-dimethyl-phenyl)-3-trifluoromethyl-4,5-dihydro-pyrazol-1-yl]-benzenesulfonamide]
2 | – | do not display any inhibiting activity | 10.6 µM | – | 195 to 197 °C | do not display any inhibiting activity | – | NS(=O)(=O)c1ccc(N2N=C(C(F)(F)F)CC2c2cc(C(F)(F)F)cc(C(F)(F)F)c2)cc1 (stereo not drawn) [Example 2, 4-[5-(3,5-bis-trifluoromethyl-phenyl)-3-trifluoromethyl-4,5-dihydro-pyrazol-1-yl]-benzenesulfonamide]
3 | 21.5 µM | – | 30.6 µM | 18.2 µM | – | – | 26.5 µM | Cc1ccc(-c2cc(C(F)(F)F)nn2-c2ccc(S(N)(=O)=O)cc2)cc1 [Celecoxib, reference compound]
